From EP0960886B1, “Peptide T and related peptides in the treatment of inflammation, including multiple sclerosis” (priority 1992, dated 1993)
Entries after “also recorded” stand apart in the source; their conditions may differ.

Key:
[1] = tested on: mouse foetal hippocampal neurons; settings: cited from earlier work
PBMC = assay: Mitogen-induced lymphoproliferation (Example 12); assay type: cell-based, human
Protocol: Concanavalin A (Con A), pokeweed mitogen, (PWM) and phytohaemagglutin-P (PHA-P) were obtained from Sigma Chemical Co. (St. Louis, MO, USA). Peptide T was synthesised by Carlbiotech Ltd (Copenhagen, Denmark) and supplied as the chloride salt at 8.5 mg/ml in 0.9% benzyl alcohol as a preservative and was stored at 4°C. Peptide T was diluted to working solutions in culture medium (RPMI). Dilute solutions of Peptide T were prepared fresh from stock Peptide T for each experiment. ^3H-thymidine (5 Ci/mmol) was obtained from Amersham.
Isolation of PBMC: Whole blood from healthy, adult volunteers was drawn into heparin and peripheral blood mononuclear cells (PBMC) isolated by density gradient centrifugation on HISTOPAQUE™ (Sigma Chemical Co). PBMC were removed from the interface, washed three times in RPMI containing gentamycin (100µg/ml) and resuspended to 1x10^6 PBMC/ml in RPMI containing 10% foetal bovine serum and gentamycin. 10^5 PBMC were cultured in the presence of 100µl of mitogen suspension in 96 well plates. The final concentration of mitogen was: PWM 25µg/ml; PHA 12.5µg/ml and Con A 6.25µg/ml. 10µl of Peptide T working solution (or RPMI as negative control) was added and cell cultures incubated for a total of 5 days in a humid atmosphere, 5% CO2, 37°C. Cultures were then pulsed with ^3H-thymidine (in RPMI) 18-24 hours prior to harvesting. The amount of incorporated ^3H-thymidine was determined using a BECKMAN™ LS8000 liquid scintillation counter and proliferation expressed as either counts per minute (cpm) or as a proliferation index (PI). PI=(cpm of (PBMC+mitogen))/(cpm of (PBMC+media)) [formula]
All experiments were performed in triplicate. Results reported are characteristic of replicated experiments.
Statistical Analyses: Data were analysed by a two sample ANOVA test using 95% confidence limits such that a value of p≤0.05 was considered a significant difference.

C[C@@H](N)C(=O)N[C@@H](CO)C(=O)N[C@H](C(=O)N[C@H](C(=O)N[C@H](C(=O)N[C@@H](CC(N)=O)C(=O)N[C@@H](Cc1ccc(O)cc1)C(=O)N[C@H](C(N)=O)[C@@H](C)O)[C@@H](C)O)[C@@H](C)O)[C@@H](C)O [Peptide T, D-Ala-Ser-Thr-Thr-Thr-Asn-Tyr-Thr-NH2]
neurotoxicity of CSF from a patient with AIDS dementia ([1]; CSF at 1:100,000 dilution, 44-49% killing without peptide): inhibited | gp120-induced neurotoxicity ([1]; cultures of mouse foetal hippocampal neurons): completely, antagonised | concentration able to inhibit stimulated PBMC cultures (PBMC; Con A stimulated, as little as): 0.001 pM | cytotoxicity for responding lymphocytes (PBMC; Con A-induced proliferation measured daily): not cytotoxic | proliferation index ± standard deviation (PBMC; Con A, Peptide T 1x10^-9 M added Day 1, no Peptide T 21.0 ± 5.7): 6.2 ± 0.5 | proliferation index ± standard deviation (PBMC; Con A, Peptide T 1x10^-9 M added Day 2, no Peptide T 21.0 ± 5.7): 6.0 ± 1.1 | proliferation index ± standard deviation (PBMC; Con A, Peptide T 1x10^-9 M added Day 3, no Peptide T 21.0 ± 5.7): 9.9 ± 0.1 | proliferation index ± standard deviation (PBMC; Con A, Peptide T 1x10^-9 M added Day 4, no Peptide T 21.0 ± 5.7): 9.5 ± 1.6 | concentration able to inhibit stimulated PBMC cultures (PBMC; PHA stimulated): 0.1 pM | proliferation index ± standard deviation (PBMC; PHA, Peptide T 1x10^-9 M added Day 1, no Peptide T 197 ± 3): 148 ± 13 | proliferation index ± standard deviation (PBMC; PHA, Peptide T 1x10^-9 M added Day 2, no Peptide T 197 ± 3): 101 ± 7 | proliferation index ± standard deviation (PBMC; PHA, Peptide T 1x10^-9 M added Day 3, no Peptide T 197 ± 3): 148 ± 7 | proliferation index ± standard deviation (PBMC; PHA, Peptide T 1x10^-9 M added Day 4, no Peptide T 197 ± 3): 131 ± 10 | concentration able to inhibit stimulated PBMC cultures (PBMC; PWM stimulated, as little as): 0.001 pM | proliferation index ± standard deviation (PBMC; PWM, Peptide T 1x10^-9 M added Day 1, no Peptide T 4.29 ± 0.25): 3.13 ± 0.21 | proliferation index ± standard deviation (PBMC; PWM, Peptide T 1x10^-9 M added Day 2, no Peptide T 4.29 ± 0.25): 3.20 ± 0.20 | proliferation index ± standard deviation (PBMC; PWM, Peptide T 1x10^-9 M added Day 3, no Peptide T 4.29 ± 0.25): 2.65 ± 0.17 | proliferation index ± standard deviation (PBMC; PWM, Peptide T 1x10^-9 M added Day 4, no Peptide T 4.29 ± 0.25): 3.22 ± 0.28 | mitogen induced proliferation of PBMC after exposure and washing (PBMC; exposure to Peptide T for 2 hours, cells washed before mitogen): inhibition of proliferation | Con A-induced lymphocyte proliferation measured daily (PBMC; growth period day 2-4, Peptide T 10^-9M, compared with growth in absence of the drug): paralleled, but at a reduced rate | growth of PBMC in the absence of mitogen (PBMC; no mitogen): negligible effects; also recorded: did not significantly affect | mitogen stimulation of PBMC after pre-incubation (PBMC; pre-incubation with Peptide T for less than 30 minutes): no effect
